Like-named read-outs stand apart in the source and are kept apart here.

The target of experiment [1] is T1, PDE4B: The catalytic domain of human PDE4B from S152-S528 (Homo sapiens, UniProt Q07343).
T1 construct: His6 (N); thrombin cleavage site (N); made in house; host or cells: E. coli
Kind of experiment: PDE4 IC50 determination by Scintillation Proximity Assay, PDE4B. Type of experiment: biochemical. An outline of the steps: (§1)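 Scintillation counts reflected [^3H]AMP captured on yttrium silicate SPA beads after enzyme hydrolysed [^3H]cAMP for 30 min at 30°. PDE4B was used at 80 ng/ml and PDE4D at 4 ng/ml. IC50 values came from non-linear regression.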

In another experiment the target is T2, PDE4D (Homo sapiens, UniProt Q08499).
T2 construct: PDE4D: The catalytic domain of human PDE4B from S3 16-V692; His6 (N); thrombin cleavage site (N); made in house; host or cells: E. coli
Kind of experiment: PDE4 IC50 determination by Scintillation Proximity Assay, PDE4D. In kind it is biochemical. An outline of the steps: as §1
For orientation: In a scintillation proximity assay essentially only radioactivity close to the scintillant gives light.

The mark [2] stands for this setting: Table 1B, Formula I compounds, read-out: IC50 PDE4B.
Where [3] appears, read: Table 1B, Formula I compounds, read-out: IC50 PDE4D.
Setting [4] is: first part of Table 2B (2-1 to 2-22), read-out: IC 50 vs. indicated assay PDE4B.
Setting [5] is: first part of Table 2B (2-1 to 2-22), read-out: IC 50 vs. indicated assay PDE4D.

T1 sequence (Q07343 with tags, fused parts or gaps): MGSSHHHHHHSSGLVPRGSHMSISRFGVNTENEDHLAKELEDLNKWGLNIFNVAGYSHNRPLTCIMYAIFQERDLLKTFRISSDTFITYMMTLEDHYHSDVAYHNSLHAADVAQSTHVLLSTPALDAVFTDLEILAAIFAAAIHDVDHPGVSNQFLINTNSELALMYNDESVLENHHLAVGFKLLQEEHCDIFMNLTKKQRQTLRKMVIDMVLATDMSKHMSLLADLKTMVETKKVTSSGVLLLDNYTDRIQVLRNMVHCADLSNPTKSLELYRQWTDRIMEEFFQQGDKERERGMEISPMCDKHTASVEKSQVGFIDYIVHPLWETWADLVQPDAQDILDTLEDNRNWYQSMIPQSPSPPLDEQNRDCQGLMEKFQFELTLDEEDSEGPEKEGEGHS
T2 sequence (Q08499 380-756): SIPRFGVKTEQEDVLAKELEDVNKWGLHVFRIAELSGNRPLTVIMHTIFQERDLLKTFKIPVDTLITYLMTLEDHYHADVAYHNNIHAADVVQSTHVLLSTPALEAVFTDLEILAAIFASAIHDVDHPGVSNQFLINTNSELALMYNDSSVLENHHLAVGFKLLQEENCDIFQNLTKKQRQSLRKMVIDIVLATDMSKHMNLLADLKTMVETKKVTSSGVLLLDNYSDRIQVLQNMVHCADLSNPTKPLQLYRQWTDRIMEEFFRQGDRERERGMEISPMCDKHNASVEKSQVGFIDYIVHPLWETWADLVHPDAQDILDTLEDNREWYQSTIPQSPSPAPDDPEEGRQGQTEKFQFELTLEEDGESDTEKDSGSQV

`COc1ccc(C(=O)c2sc(NC3CCCC3)c(C#N)c2N)cc1` [Compound 1-183, 4-Amino-2-cyclopentylamino-5-(4-methoxy-benzoyl)-thiophene-3-carbonitrile]: the IC50 (in experiment [1] (setting [2]); on PDE4D (setting [3])) was below 10 µM in each case.
As to `N#Cc1c(Nc2ccc(Oc3ccccc3)cc2)sc(C(=O)C2CC2)c1N` [Compound 1-184, 4-Amino-5-cyclopropanecarbonyl-2-(4-phenoxy-phenylamino)-thiophene-3-carbonitrile], the IC50 (in experiment [1] (setting [2]); on PDE4D (setting [3])) was below 10 µM throughout.
Take `N#Cc1c(Nc2ccc(Oc3ccccc3)cc2)sc(C(=O)c2ccccc2)c1N` [Compound 1-185, 4-Amino-5-benzoyl-2-(4-phenoxy-phenylamino)-thiophene-3-carbonitrile]: the IC50 (in experiment [1] (setting [2]); on PDE4D (setting [3])) was below 10 µM each time.
On to `N#Cc1c(NC2CCCC2)sc(C(N)=O)c1N` [Compound 1-196, 3-Amino-4-cyano-5-cyclopentylamino-thiophene-2-carboxylic acid amide], for which the IC50 (in experiment [1] (setting [2]); on PDE4D (setting [3])) was above 10 µM in each case.
Consider `N#Cc1c(Nc2ccc(Oc3ccccc3)cc2)sc(C(N)=O)c1N` [Compound 1-197, 3-Amino-4-cyano-5-(4-phenoxy-phenylamino)-thiophene-2-carboxylic acid amide], for which the IC50 (in experiment [1] (setting [2]); at PDE4D (setting [3])) was above 10 µM throughout.
In the case of `CCOC(=O)c1sc(NC2CCCC2)c(C#N)c1N` [Compound 1-199, 3-Amino-4-cyano-5-cyclopentylamino-thiophene-2-carboxylic acid ethyl ester], the IC50 (in experiment [1] (setting [2]); on PDE4D (setting [3])) was below 10 µM each time.
Take `CCOC(=O)C(=O)c1sc(NC2CCCC2)c(C#N)c1N` [Compound 1-201, (3-Amino-4-cyano-5-cyclopentylamino-thiophen-2-yl)-oxo-acetic acid ethyl ester]: the IC50 (in experiment [1] (setting [2]); on PDE4D (setting [3])) was below 10 µM throughout.
As for `N#Cc1c(NC2CCCC2)sc(C(=O)c2ccsc2)c1N` [Compound 1-202, 4-Amino-2-cyclopentylamino-5-(thiophene-3-carbonyl)-thiophene-3-carbonitrile], the IC50 (in experiment [1] (setting [2]); on PDE4D (setting [3])) was below 10 µM in each case.
Consider `N#Cc1c(NC2CCCC2)sc(C(=O)c2ccc(-c3ccccc3)s2)c1N` [Compound 1-203, 4-Amino-2-cyclopentylamino-5-(5-phenyl-thiophene-2-carbonyl)-thiophene-3-carbonitrile], for which the IC50 (in experiment [1] (setting [2]); on PDE4D (setting [3])) was below 10 µM in each case.
On to `N#Cc1c(NC2CCCC2)sc(C(=O)c2cc(Br)no2)c1N` [Compound 1-207, 4-Amino-5-(3-bromo-isoxazole-5-carbonyl)-2-cyclopentylamino-thiophene-3-carbonitrile], for which the IC50 (in experiment [1] (setting [2]); on PDE4D (setting [3])) was below 10 µM in each case.
As for `CC(C)Nc1sc(C(=O)c2ccc(Cl)c(Cl)c2)c(N)c1C#N` [Compound 1-217, 4-Amino-5-(3,4-dichloro-benzoyl)-2-isopropylamino-thiophene-3-carbonitrile], the IC50 (in experiment [1] (setting [2]); at PDE4D (setting [3])) was below 10 µM throughout.
Regarding `CN1CCN(C(=O)C(=O)c2sc(NC3CCCC3)c(C#N)c2N)CC1` [Compound 1-218, 4-Amino-2-cyclopentylamino-5-[2-(4-methyl-piperazin-1-yl)-2-oxo-acetyl]-carbonitrile], the IC50 (in experiment [1] (setting [2]); on PDE4D (setting [3])) was above 10 µM throughout.
Regarding `CCC(CC)Nc1sc(C(=O)c2ccc(Oc3ccccc3)cc2)c(N)c1C#N` [Compound 1-229, 4-Amino-2-(1-ethyl-propylamino)-5-(4-phenoxy-benzoyl)-thiophene-3-carbonitrile], the IC50 (in experiment [1] (setting [2]); at PDE4D (setting [3])) was below 10 µM in each case.
Take `CC(C)Nc1sc(C(=O)c2ccc(Oc3ccccc3)cc2)c(N)c1C#N` [Compound 1-230, 4-Amino-2-isopropylamino-5-(4-phenoxy-benzoyl)-thiophene-3-carbonitrile]: the IC50 (in experiment [1] (setting [2]); at PDE4D (setting [3])) was below 10 µM each time.
Take `N#Cc1c(NC2CCCC2)sc(C(=O)c2ccc(Oc3ccccc3)cc2)c1N` [Compound 1-231, 4-Amino-2-cyclopentylamino-5-(4-phenoxy-benzoyl)-thiophene-3-carbonitrile]: the IC50 (in experiment [1] (setting [2]); on PDE4D (setting [3])) was below 10 µM each time.
For the compound `CCC(C)Nc1sc(C(=O)c2ccc(Oc3ccccc3)cc2)c(N)c1C#N` (stereo not drawn) [Compound 1-232, 4-Amino-2-sec-butylamino-5-(4-phenoxy-benzoyl)-thiophene-3-carbonitrile], the IC50 (in experiment [1] (setting [2]); at PDE4D (setting [3])) was below 10 µM in each case.
With `Cc1sc(-c2ccccc2)cc1C(=O)c1sc(NC2CCCC2)c(C#N)c1N` [Compound 1-234, 4-Amino-2-cyclopentylamino-5-(2-methyl-5-phenyl-thiophene-3-carbonyl)-thiophene-3-carbonitrile], the IC50 (in experiment [1] (setting [2]); at PDE4D (setting [3])) was below 10 µM each time.
For the compound `N#Cc1c(NC2CCCC2)sc(C(=O)c2csc(-c3ccccc3)n2)c1N` [Compound 1-235, 4-Amino-2-cyclopentylamino-5-(2-phenyl-thiazole-4-carbonyl)-thiophene-3-carbonitrile], the IC50 (in experiment [1] (setting [2]); at PDE4D (setting [3])) was below 10 µM each time.
As for `CCOC(=O)c1cc(C(=O)c2sc(Nc3ccc(OC)cc3)nc2N)on1` [Compound 2-2, 5-[4-Amino-2-(4-methoxy-phenylamino)-thiazole-5-carbonyl]-isoxazole-3-carboxylic acid ethyl ester], the IC50 (in experiment [1] (setting [4]); at PDE4D (setting [5])) was below 10 µM each time.
Take `CCOC(=O)c1cc(C(=O)c2sc(Nc3ccc(Oc4ccccc4)cc3)nc2N)on1` [Compound 2-3, 5-[4-Amino-2-(4-phenoxy-phenylamino)-thiazole-5-carbonyl]-isoxazole-3-carboxylic acid ethyl ester]: the IC50 (in experiment [1] (setting [4]); on PDE4D (setting [5])) was above 10 µM in each case.
`CCOC(=O)c1cc(C(=O)c2sc(NC3CCCC3)nc2N)on1` [Compound 2-4, 5-(4-Amino-2-cyclopentylamino-thiazole-5-carbonyl)-isoxazole-3-carboxylic acid ethyl ester]: the IC50 (in experiment [1] (setting [4]); on PDE4D (setting [5])) was below 10 µM each time.
On to `CCOC(=O)c1cc(C(=O)c2sc(NC3CC3)nc2N)on1` [Compound 2-5, 5-(4-Amino-2-cyclopropylamino-thiazole-5-carbonyl)-isoxazole-3-carboxylic acid ethyl ester], for which the IC50 (in experiment [1] (setting [4]); at PDE4D (setting [5])) was below 10 µM in each case.
On to `COc1ccc(Nc2nc(N)c(C(=O)c3cc(-c4ccccc4)no3)s2)cc1` [Compound 2-7, [4-Amino-2-(4-methoxy-phenylamino)-thiazol-5-yl]-(3-phenyl-isoxazol-5-yl)-methanone], for which the IC50 (in experiment [1] (setting [4]); on PDE4D (setting [5])) was below 10 µM throughout.
Consider `Nc1nc(NC2CC2)sc1C(=O)c1cc(-c2ccccc2)no1` [Compound 2-10, (4-Amino-2-cyclopropylamino-thiazol-5-yl)-(3-phenyl-isoxazol-5-yl)-methanone], for which the IC50 (in experiment [1] (setting [4]); on PDE4D (setting [5])) was below 10 µM each time.
With `CC(C)Nc1nc(N)c(C(=O)c2cc(-c3ccccc3)no2)s1` [Compound 2-11, (4-Amino-2-isopropylamino-thiazol-5-yl)-(3-phenyl-isoxazol-5-yl)-methanone], the IC50 (in experiment [1] (setting [4]); on PDE4D (setting [5])) was below 10 µM throughout.
Turning to `Nc1nc(NC2CCCC2)sc1C(=O)c1cc(-c2ccc(Cl)cc2)no1` [Compound 2-12, (4-Amino-2-cyclopentylamino-thiazol-5-yl)-[3-(4-chloro-phenyl)-isoxazol-5-yl]-methanone], the IC50 (in experiment [1] (setting [4]); at PDE4D (setting [5])) was below 10 µM in each case.
For the compound `CC(C)Nc1nc(N)c(C(=O)c2cc(-c3ccc(Cl)cc3)no2)s1` [Compound 2-13, (4-Amino-2-isopropylamino-thiazol-5-yl)-[3-(4-chloro-phenyl)-isoxazol-5-yl]-methanone], the IC50 (in experiment [1] (setting [4]); at PDE4D (setting [5])) was below 10 µM throughout.
Regarding `CC(C)Nc1nc(N)c(C(=O)c2cc(-c3ccc(Cl)c(Cl)c3)no2)s1` [Compound 2-14, (4-Amino-2-isopropylamino-thiazol-5-yl)-[3-(3,4-dichloro-phenyl)-isoxazol-5-yl]-methanone], the IC50 (in experiment [1] (setting [4]); on PDE4D (setting [5])) was below 10 µM throughout.
As to `CC(C)CNc1nc(N)c(C(=O)c2cc(-c3ccc(Cl)c(Cl)c3)no2)s1` [Compound 2-15, (4-Amino-2-isobutylamino-thiazol-5-yl)-[3-(3,4-dichloro-phenyl)-isoxazol-5-yl]-methanone], the IC50 (in experiment [1] (setting [4]); at PDE4D (setting [5])) was below 10 µM in each case.
Take `CC(C)CNc1nc(N)c(C(=O)c2cc(-c3ccc(Cl)cc3)no2)s1` [Compound 2-16, (4-Amino-2-isobutylamino-thiazol-5-yl)-[3-(4-chloro-phenyl)-isoxazol-5-yl]-methanone]: the IC50 (in experiment [1] (setting [4]); at PDE4D (setting [5])) was below 10 µM each time.
`Nc1nc(NC2CCCC2)sc1C(=O)c1ccc(-c2ccccn2)s1` [Compound 2-17, (4-Amino-2-cyclopentylamino-thiazol-5-yl)-(5-pyridin-2-yl-thiophen-2-yl)-methanone]: the IC50 (in experiment [1] (setting [4]); on PDE4D (setting [5])) was below 10 µM in each case.
`Nc1nc(NC2CCCC2)sc1C(=O)c1ccc(-c2ccccc2)s1` [Compound 2-18, (4-Amino-2-cyclopentylamino-thiazol-5-yl)-(5-phenyl-thiophen-2-yl)-methanone]: the IC50 (in experiment [1] (setting [4]); at PDE4D (setting [5])) was below 10 µM each time.
Regarding `Cc1sc(-c2ccccc2)cc1C(=O)c1sc(NC2CCCC2)nc1N` [Compound 2-20, (4-Amino-2-cyclopentylamino-thiazol-5-yl)-(2-methyl-5-phenyl-thiophen-3-yl)-methanone], the IC50 (in experiment [1] (setting [4]); on PDE4D (setting [5])) was below 10 µM each time.

Values taken from patent US7585859B2, “PDE4B inhibitors and uses therefor” (Plexxikon, Inc., priority 2004, dated 2009).
